Data as given in US12673944B2, “Compounds having inhibitory activity against glucosylceramide synthase or pharmaceutically acceptable salt thereof, processes for preparing the same, and pharmaceutical compositions comprising the same” (YUHAN CORPORATION, priority 2019, dated 2026).

What was measured:
[1] = tested on: GM1 production in Jurkat cells; assay: cells; assay type: cell-based; details: Homo sapiens, Jurkat, 72 h
[2] = target: T1, glucosylceramide synthase (GCS) (Homo sapiens, UniProt Q16739); assay: GCS enzyme inhibition assay (A549 cell lysate, NBD C6-ceramide, HPLC fluorescence); assay type: biochemical; details: inhibitory activity against GCS, 37° C., 90 minutes
T1 construct: The obtained supernatant was used; host or cells: A549 cells (lysate supernatant after sonication)
T1 sequence (Q16739 1-394): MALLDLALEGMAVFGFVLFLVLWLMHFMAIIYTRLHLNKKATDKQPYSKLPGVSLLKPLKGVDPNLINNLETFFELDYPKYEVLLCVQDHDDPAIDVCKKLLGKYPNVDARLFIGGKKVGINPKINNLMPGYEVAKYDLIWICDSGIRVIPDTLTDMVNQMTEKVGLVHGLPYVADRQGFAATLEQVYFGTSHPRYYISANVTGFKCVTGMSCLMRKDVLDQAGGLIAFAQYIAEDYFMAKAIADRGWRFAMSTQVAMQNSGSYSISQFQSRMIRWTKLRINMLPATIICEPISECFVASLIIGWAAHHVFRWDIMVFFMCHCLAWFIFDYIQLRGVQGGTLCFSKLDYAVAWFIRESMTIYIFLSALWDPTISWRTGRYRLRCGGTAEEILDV
Outline: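 Percent GCS activity was derived from the GlcCer share of Cer plus GlcCer areas, scaled from ibiglustat (0%) to DMSO (100%). Enzyme came from sonicated A549 lysate in 50 mM HEPES pH 7.3; 90 min incubation at 37° C, chloroform/methanol stop and extraction.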

| SMILES | IC50 [1] [nM] | IC50 [2] [nM] |
| --- | --- | --- |
| COc1cccc(F)c1-c1ccc2c(c1)OCC(C)(C)C2NC(=O)O[C@@H]1CN2CCC1CC2 (stereo partly drawn) [Example 122, (S)-quinuclidin-3-yl (7-(2-fluoro-6-methoxyphenyl)-3,3-dimethylchroman-4-yl)carbamate] | 3.75 | 0.96 |
| COc1cc(F)c(-c2ccc3c(c2)OCC(C)(C)C3NC(=O)O[C@@H]2CN3CCC2CC3)cc1F (stereo partly drawn) [Example 123, (S)-quinuclidin-3-yl (7-(2,5-difluoro-4-methoxyphenyl)-3,3-dimethylchroman-4-yl)carbamate] | 4.24 | 0.79 |
| CCOc1ccc(-c2ccc3c(c2)OCC(C)(C)C3NC(=O)O[C@@H]2CN3CCC2CC3)cc1F (stereo partly drawn) [Example 124, (S)-quinuclidin-3-yl (7-(4-ethoxy-3-fluorophenyl)-3,3-dimethylchroman-4-yl)carbamate] | 4.47 | 0.75 |
| COc1ccc(-c2ccc3c(c2)OCC(C)(C)C3NC(=O)O[C@@H]2CN3CCC2CC3)c(OC)c1 (stereo partly drawn) [Example 125, (S)-quinuclidin-3-yl (7-(2,4-dimethoxyphenyl)-3,3-dimethylchroman-4-yl)carbamate] | 3.85 | 0.86 |
| COc1ccc(OC)c(-c2ccc3c(c2)OCC(C)(C)C3NC(=O)O[C@@H]2CN3CCC2CC3)c1 (stereo partly drawn) [Example 126, (S)-quinuclidin-3-yl (7-(2,5-dimethoxyphenyl)-3,3-dimethylchroman-4-yl)carbamate] | 0.85 | 0.58 |
| COc1cccc(-c2ccc3c(c2)OCC(C)(C)C3NC(=O)O[C@@H]2CN3CCC2CC3)c1OC (stereo partly drawn) [Example 127, (S)-quinuclidin-3-yl (7-(2,3-dimethoxyphenyl)-3,3-dimethylchroman-4-yl)carbamate] | 14.2 | 2.11 |
| COc1ccc(-c2ccc3c(c2)OCC(C)(C)C3NC(=O)O[C@@H]2CN3CCC2CC3)cc1OC (stereo partly drawn) [Example 128, (S)-quinuclidin-3-yl (7-(3,4-dimethoxyphenyl)-3,3-dimethylchroman-4-yl)carbamate] | 23.2 | 2.84 |
| COc1ccc(-c2ccc3c(c2)OCC(C)(C)C3NC(=O)O[C@@H]2CN3CCC2CC3)c(OC)n1 (stereo partly drawn) [Example 129, (S)-quinuclidin-3-yl (7-(2,6-dimethoxypyridin-3-yl)-3,3-dimethylchroman-4-yl)carbamate] | 4.56 | 1.15 |
| CC1(C)COc2cc(-c3ccc4ccccc4c3)ccc2C1NC(=O)O[C@@H]1CN2CCC1CC2 (stereo partly drawn) [Example 130, (S)-quinuclidin-3-yl (3,3-dimethyl-7-(naphthalen-2-yl)chroman-4-yl)carbamate] | 1.4 | 0.71 |
| CC1(C)COc2cc(-c3cccc4ccccc34)ccc2C1NC(=O)O[C@@H]1CN2CCC1CC2 (stereo partly drawn) [Example 131, (S)-quinuclidin-3-yl (3,3-dimethyl-7-(naphthalen-1-yl)chroman-4-yl)carbamate] | 1.21 | 1.02 |
| CC1(C)COc2cc(-c3ccc4ncccc4c3)ccc2C1NC(=O)O[C@@H]1CN2CCC1CC2 (stereo partly drawn) [Example 132, (S)-quinuclidin-3-yl (3,3-dimethyl-7-(quinolin-6-yl)chroman-4-yl)carbamate] | 8.95 | 1.55 |
| CCOc1c(C)cc(-c2ccc3c(c2)OCC(C)(C)C3NC(=O)O[C@@H]2CN3CCC2CC3)cc1C (stereo partly drawn) [Example 133, (S)-quinuclidin-3-yl (7-(4-ethoxy-3,5-dimethylphenyl)-3,3-dimethylchroman-4-yl)carbamate] | 0.1 | 1.35 |
| CCOc1cc(-c2ccc3c(c2)OCC(C)(C)C3NC(=O)O[C@@H]2CN3CCC2CC3)c(Cl)cc1Cl (stereo partly drawn) [Example 134, (S)-quinuclidin-3-yl (7-(2,4-dichloro-5-ethoxyphenyl)-3,3-dimethylchroman-4-yl)carbamate] | 12.7 | 2.83 |
| CC(C)Oc1ccc(F)c(-c2ccc3c(c2)OCC(C)(C)C3NC(=O)O[C@@H]2CN3CCC2CC3)c1 (stereo partly drawn) [Example 135, (S)-quinuclidin-3-yl (7-(2-fluoro-5-isopropoxyphenyl)-3,3-dimethylchroman-4-yl)carbamate] | 3.46 | 0.44 |
| CC(C)Oc1cc(F)cc(-c2ccc3c(c2)OCC(C)(C)C3NC(=O)O[C@@H]2CN3CCC2CC3)c1 (stereo partly drawn) [Example 136, (S)-quinuclidin-3-yl (7-(3-fluoro-5-isopropoxyphenyl)-3,3-dimethylchroman-4-yl)carbamate] | 2.73 | 0.61 |
| CC1(C)COc2cc(-c3ccc(C(F)(F)F)cc3Cl)ccc2C1NC(=O)O[C@@H]1CN2CCC1CC2 (stereo partly drawn) [Example 137, (S)-quinuclidin-3-yl (7-(2-chloro-4-(trifluoromethyl)phenyl)-3,3-dimethylchroman-4-yl)carbamate] | 0.11 | 0.62 |
| CC1(C)COc2cc(-c3cccc(C(F)(F)F)c3Cl)ccc2C1NC(=O)O[C@@H]1CN2CCC1CC2 (stereo partly drawn) [Example 138, (S)-quinuclidin-3-yl (7-(2-chloro-3-(trifluoromethyl)phenyl)-3,3-dimethylchroman-4-yl)carbamate] | 1.57 | 0.63 |
| CC1(C)COc2cc(-c3cc(C(F)(F)F)ccc3Cl)ccc2C1NC(=O)O[C@@H]1CN2CCC1CC2 (stereo partly drawn) [Example 139, (S)-quinuclidin-3-yl (7-(2-chloro-5-(trifluoromethyl)phenyl)-3,3-dimethylchroman-4-yl)carbamate] | 0.3 | 0.62 |
| CCCOc1c(C)cc(-c2ccc3c(c2)OCC(C)(C)C3NC(=O)O[C@@H]2CN3CCC2CC3)cc1C (stereo partly drawn) [Example 140, (S)-quinuclidin-3-yl (7-(3,5-dimethyl-4-propoxyphenyl)-3,3-dimethylchroman-4-yl)carbamate] | 0.15 | 0.88 |
| CC(C)(C)OCc1ccc(-c2ccc3c(c2)OCC(C)(C)C3NC(=O)O[C@@H]2CN3CCC2CC3)cc1 (stereo partly drawn) [Example 141, (S)-quinuclidin-3-yl (7-(4-(tert-butoxymethyl)phenyl)-3,3-dimethylchroman-4-yl)carbamate] | 0.2 | 0.19 |
| CC1(C)COc2cc(-c3cc(OC(F)(F)F)ccc3Cl)ccc2C1NC(=O)O[C@@H]1CN2CCC1CC2 (stereo partly drawn) [Example 142, (S)-quinuclidin-3-yl (7-(2-chloro-5-(trifluoromethoxy)phenyl)-3,3-dimethylchroman-4-yl)carbamate] | 0.19 | 0.67 |
| CCCCOc1cccc(F)c1-c1ccc2c(c1)OCC(C)(C)C2NC(=O)O[C@@H]1CN2CCC1CC2 (stereo partly drawn) [Example 143, (S)-quinuclidin-3-yl (7-(2-butoxy-6-fluorophenyl)-3,3-dimethylchroman-4-yl)carbamate] | 1.46 | 0.78 |
| CC1(C)COc2cc(-c3ccc(OCC(F)(F)F)nc3)ccc2C1NC(=O)O[C@@H]1CN2CCC1CC2 (stereo partly drawn) [Example 144, (S)-quinuclidin-3-yl (3,3-dimethyl-7-(6-(2,2,2-trifluoroethoxy)pyridin-3-yl)chroman-4-yl)carbamate] | 1.2 | 0.17 |
| COc1ccc2cc(-c3ccc4c(c3)OCC(C)(C)C4NC(=O)O[C@@H]3CN4CCC3CC4)ccc2c1 (stereo partly drawn) [Example 145, (S)-quinuclidin-3-yl (7-(6-methoxynaphthalen-2-yl)-3,3-dimethylchroman-4-yl)carbamate] | 0.08 | 0.69 |
